Values joined by “and” are separate entries in the source; they are usually repeats but may differ in a detail not shown here. Identical values can stand only once. “Also recorded” adds a separate entry of the source. Like-named read-outs stand apart in the source and are kept apart here.
Experiments:
[1] = system: MitoTox Reporter cells (MDA-MB-231 expressing Laconic); assay: Pilot screening of 13 compounds with MitoTox Reporter cells, multiplate reader; type: cell-based; details: for ΔR% variation / lactate accumulation over all concentrations tested: 1, 5, and 10 μM; for ΔR% (lactate accumulation): average of 4 replicate wells, Fig 9 legend 30 minutes, 37°C; for Concentration at which toxicity / mitochondrial effects were detected in the pilot screening: tested at 1, 5 and 10 μM
Method: (§1) MitoTox reporter cell line was cultured in Leibowitz media (Gibco) supplemented with 10% of fetal bovine serum (FBS) at 37°C at atmospheric CO2 levels in a 100 mm petri dish. Once cells reached 100% confluency, they were trypsinized using 5% trypsin (Gibco) and washed in PBS. Viability was determine using trypan blue staining and 10,000 cells were seeded into each well of a 96 well plate. Experiments in 96 well format were performed once cells reached 100% confluency after 6 days, during the incubation media was not replaced. All the plates with signal-to-noise ration below 1.3 for monomeric Teal Fluorescent Protein (mTFP) and Venus channels were discarded. Background signal was determined with KRH buffer without cells. Experiments consisted in washing out the culture media using KRH HEPES buffer containing (mM) 136 NaCl, 3 KCl, 1.25 CaCl2, 1.25 MgCl2, 10 HEPES/Tris and pH 7.2 at 37°C with 300 mOsm. Then 200 μl of KRH HEPES buffer without any carbon sources was added to each well and the baseline was measured (RMIN), then 100 μl of buffer was replaced with mitochondrial toxicant/controls and signal was measured to obtain a stimulated response (RMAX). In experiments were pCMBS was used to block lactate exit, the inhibitor was added simultaneously with the mitochondrial toxicants. Data was collected in triplicated after 5, 10, 30, and 60 minutes of incubation. All the experiments in 96 well plates were performed in an EnVision® multiplate reader (PerkinElmer). Each well was excited at 430 nm and the intensity of mTFP and Venus fluorescence emission were recorded at 485 nm and 528 nm, using a set of filters.
(§2) Where R(mTFP/Venus) min corresponded to the minimal change of mTFP/Venus ratio during the single-cell experiments. Results in 96 well plates experiments were expressed by the ΔR%. This parameter was obtained from the difference between the RMAX and RMIN from the same well (before-after experiment) as follow: ΔR%=(R(mTFP/Venus)max−R(mTFP/Venus)min/R(mTFP/Venus)min)x100
Multiple comparisons versus control groups (Holm-Sidak method), Overall significance level P < 0,05.
The capability of the assay to identify previously described toxic drugs was explored through a pilot screening assay. We selected 13 compounds from a variety of therapeutic classes to perform a pilot screening assay using MitoTox Reporter cells and a standard multiplate reader. […] To perform the assays, we prepared master stocks for each compound in 0.2% DMSO. Assays were performed with compounds at final concentrations of 1, 5, and 10 μM and the response of MitoTox Reporter cells were measured at 5, 10, 30, and 60 minutes. […] As a negative control we selected a compound with no reported side-effects.

[2] = system: mitochondrial membrane potential (MMP); details: cited from earlier work
HepG2 cells [3] = system: HepG2 cells; set-up: method as in PMID 22689143; details: cited from earlier work
[4] = system: MDA-MB-231 cells stably expressing the FRET lactate indicator Laconic (MitoTox Reporter); assay: MitoToxy assay: toxicity-induced lactate accumulation in MitoTox Reporter cells, 96-well plate reader, with 50 μM pCMBS; type: cell-based
Method: as §1, §2

[5] = system: clonal MDA-MB-231 cells expressing Laconic; assay: Single-cell lactate imaging of MitoTox Reporter cells; type: cell-based; details: 32 μM rotenone, 16 μM antimycin, 80 μM oligomycin, 10 μM myxothiazol
Source text: To generate a cell system with a high signal-to-noise ratio suitable for standard multiplate readers, we developed a clonal cell line with high levels and homogeneous Laconic expression. To do so, we produced a lentivirus particle to infect and transduce Laconic in MDA-MB-231 cells. From pooled cells with diverse levels of Laconic expression we selected high expression clones through FACS. […] We termed this cell line “MitoTox Reporter”. Exposure of these cells to classical mitochondrial poisons produced a robust increase in the fluorescent signal, indicating acute toxicity-induced lactate accumulation. […] With this evidence in hand, cells were tested in a multi-well plate reader.
Fig 3 Characterization of “MitoTox reporter” cell line. A) Confocal images from FACS selected clonal MDA-MB-231 cells expressing Laconic. Size bars for 20x and 60x represent 100 μm and 10 μm, respectively. Cytosolic lactate accumulation induced by treatment with: B) 32 μM rotenone, C) 16 μM of antimycin, D) 80 μM of oligomycin, and 10 μM myxothiazol. Each trace is the average of ten cells from one representative experiment.

glutathione (GSH) = system: glutathione (GSH); set-up: method as in Li et al., 2014 [50]; details: treatment time 6 hours; ref Li et al., 2014 [50]; cited from earlier work
cell viability = system: cell viability; set-up: method as in Li et al., 2014 [50]; details: treatment time 6 hours; ref Li et al., 2014 [50]; cited from earlier work
[6] = system: reactive oxygen species (ROS); set-up: method as in Li et al., 2014 [50]; details: treatment time 6 hours; ref Li et al., 2014 [50]; cited from earlier work
[7] = system: primary culture of astrocytes from the mouse cortex expressing Laconic; assay: Single-cell lactate imaging (Laconic) in primary culture of cortical astrocytes; type: cell-based; details: 32 μM rotenone, 16 μM antimycin, 5 mM azide, 80 μM oligomycin; buffer without carbon sources
Method: Animals used for primary cultures were mixed F1 male mice (C57BL/6J × CBA/J), kept in an animal room under SPF conditions at a room temperature of 20 ± 2°C, in a 12/12-h light/dark cycle and with free access to water and food. Mixed cortical cultures of neuronal and glia cells (1 –to 3-day-old neonates) was cultured in Neurobasal medium (Gibco) supplemented with 5 mM glucose and B27. Cells were seeded on petri dishes and superfused with KRH HEPES pH 7.4. The lactate imaging experiments with single-cell resolution were performed using cultured astrocytes at 11–14 days post-dissection. Real time experiments were performed with KRH HEPES bathing solution containing (in mM) 136 NaCl, 3 KCl, 1.25 CaCl2, 1.25 MgCl2, 10 HEPES/Tris and pH 7.2 at 36°C with 300 mOsm, without carbon sources for mitochondrial toxicant experiments and 2 mM glucose and 1 mM lactate for Warburg index determination. Experiments were performed in upright Olympus FV1000 confocal microscope equipped with a 20X water-immersion objective (numerical aperture, 1.0) and a 440 nm solid-state laser.
To plot the data, we used a ratio between mTFP and Venus channels. This ratio is proportional to lactate levels, since its binding to the sensor produced a decrease in FRET efficiency. This ratio was expressed in two formulas described below: NormalizedΔR=R(mTFP/Venus)/R(mTFP/Venus)min
With the aim of testing if this observation occurs in general and if azide induced-lactate accumulation can be reproduced using another mitochondrial toxicant with a different molecular target, we performed single-cell experiments exposing primary culture of astrocytes from the mouse cortex expressing Laconic (Fig 1A) to different mitochondria inhibitors that block the ETC at different levels (Fig 1C). To take advantage of the maximal dynamic range of the lactate FRET sensor the baseline measurements were performed using buffer without carbon sources to force start the experiments with lactate levels below 100 μM.
Each data point is from an average of ten cells from three independent experiments.

HepG2 cells [8] = system: HepG2 cells; set-up: method as in Nadanaciva et al., 2012 [55]; details: treatment time 0.03 hours; ref Nadanaciva et al., 2012 [55]; cited from earlier work
HepG2 cells [9] = system: HepG2 cells; set-up: method as in Nadanaciva et al., 2012 [55]; details: treatment time 0.03 hours; ref Nadanaciva et al., 2012 [55]; cited from earlier work; remark: listed apart in the source
HepG2 cells [10] = system: HepG2 cells; set-up: method as in Marroquin et al., 2007 [35]; details: treatment time 24 hours; approximated IC50 directly from plotted data in the original paper; ref Marroquin et al., 2007 [35]; cited from earlier work
oxygen consumption = system: oxygen consumption; set-up: method as in Hynes et al., 2013 [72]; details: treatment time 0.13 hours; ref Hynes et al., 2013 [72]; cited from earlier work
[11] = system: extracellular acidification; set-up: method as in Hynes et al., 2013 [72]; details: treatment time 0.13 hours; ref Hynes et al., 2013 [72]; cited from earlier work
[12] = treatment time 6 hours, ref Li et al., 2014 [50], read-out: IC50, MMP
[13] = dose-response, treatment time 0.5 hours (Fig 8 legend: 10 minutes), 37°C, read-out: IC50 (toxicity-induced lactate accumulation, MitoToxy)

CC(=O)Oc1ccccc1C(=O)O [aspirin, acetylsalicylic acid]
ΔR% variation / lactate accumulation over all concentrations tested [1]: None of these molecules produced an important ΔR% variation; also recorded: did not induce intra-cellular lactate accumulation

CC[C@@]1(O)C(=O)OCc2c1cc1n(c2=O)Cc2cc3ccccc3nc2-1 [camptothecin]
ΔR% (lactate accumulation) ([1]; 1 μM): no change in ΔR% was detected
ΔR% (lactate accumulation) ([1]; 5 μM): potent effect and 13.52 ± 3.6%
ΔR% (lactate accumulation) ([1]; 10 μM): 49.18 ± 7.4%
Cytosolic lactate accumulation (concentration) ([1]; 10 μM, inferred from the reported dynamic range and sensitivity of Laconic): over 10 mM
Concentration at which toxicity / mitochondrial effects were detected in the pilot screening [1]: 5 µM
IC50 [2, 12]: 206 µM

CC1(COc2ccc(CC3SC(=O)NC3=O)cc2)CCCCC1 (stereo not shown) [ciglitazone]
ΔR% (lactate accumulation) ([1]; 10 μM): over 14%
Concentration at which toxicity / mitochondrial effects were detected in the pilot screening [1]: 5 µM
IC50 [2, 12]: 136 µM
EC50 (HepG2 cells [3]; Seahorse technology, read-out: Concentration required to change the OCR and ECAR by 50%): > 100 µM

COc1cc([C@@H]2c3cc4c(cc3[C@@H](O[C@@H]3O[C@@H]5CO[C@@H](C)O[C@H]5[C@H](O)[C@H]3O)[C@H]3COC(=O)[C@H]23)OCO4)cc(OC)c1O [etoposide]
ΔR% variation / lactate accumulation over all concentrations tested [1]: None of these molecules produced an important ΔR% variation; also recorded: did not induce intra-cellular lactate accumulation

CC(C)C(=O)Nc1ccc([N+](=O)[O-])c(C(F)(F)F)c1 [flutamide]
ΔR% (lactate accumulation) ([1]; 10 μM): 8.71 ± 2.06%
Concentration at which toxicity / mitochondrial effects were detected in the pilot screening [1]: 10 µM

CN(C)C(=N)N=C(N)N [metformin]
ΔR% variation / lactate accumulation over all concentrations tested [1]: None of these molecules produced an important ΔR% variation; also recorded: did not induce intra-cellular lactate accumulation

CO/C(=C/C(N)=O)[C@H](C)[C@H](/C=C/c1csc(-c2csc([C@@H](C)/C=C/C=C/C(C)C)n2)n1)OC [myxothiazol]
IC50 [4, 13]: 1.2 µM
Intracellular lactate levels in MitoTox Reporter cells (single-cell) [5]: acute, fast, and robust increase of intracellular lactate levels
IC50 [2, 12]: 1.2 µM
IC50 (glutathione (GSH)): > 1000 µM
IC50 (cell viability): 183 µM
IC50 [6]: 3.3 µM

CC1(C)NC(=O)N(c2ccc([N+](=O)[O-])c(C(F)(F)F)c2)C1=O [nilutamide]
ΔR% variation / lactate accumulation over all concentrations tested [1]: did not produce ΔR% changes at all the concentrations tested
ΔR% variation / lactate accumulation over all concentrations tested ([1]; listed as nilutamine): did not produce any effect

CC[C@H]1/C=C/C=C/C[C@@H](C)[C@H](O)[C@@](C)(O)C(=O)[C@@H](C)[C@H](O)[C@@H](C)C(=O)[C@@H](C)[C@H](O)[C@@H](C)/C=C/C(=O)O[C@@H]2[C@H](C)[C@H](CC1)O[C@]1(CC[C@H](C)[C@H](C[C@@H](C)O)O1)[C@H]2C [oligomycin]
IC50 ([4]; Homo sapiens, MDA-MB-231, dose-response, treatment time 0.5 hours (Fig 8 legend: 10 minutes), 37°C, read-out: IC50 (toxicity-induced lactate accumulation, MitoToxy)): 0.038 µM
Cytosolic lactate accumulation in astrocytes [7]: induced an acute cytosolic lactate accumulation
Intracellular lactate levels in MitoTox Reporter cells (single-cell) [5]: acute, fast, and robust increase of intracellular lactate levels
IC50 (HepG2 cells [8]): 1.1 µM
IC50 (HepG2 cells [9]): 0.92 µM
IC50 (HepG2 cells [10]): 0.005 µM
IC50 [2, 12]: 15.6 µM
IC50 (glutathione (GSH)): 161 µM
IC50 (cell viability): 182 µM
IC50 [6]: > 1000 µM
IC50 (oxygen consumption): 0.038 µM
IC50 [11]: 0.077 µM

COc1cc2nc(N3CCN(C(=O)c4ccco4)CC3)nc(N)c2cc1OC [prazosin]
ΔR% variation / lactate accumulation over all concentrations tested [1]: None of these molecules produced an important ΔR% variation
IC50 [2, 12]: 6.3 µM

CN(CCOc1ccc(CC2SC(=O)NC2=O)cc1)c1ccccn1 (stereo not shown) [rosiglitazone]
ΔR% (lactate accumulation) ([1]; 10 μM): over 14%
Concentration at which toxicity / mitochondrial effects were detected in the pilot screening [1]: 5 µM
IC50 [2, 12]: > 1000 µM
Effect on OCR and ECAR (HepG2 cells [3]; between 0.13 and 100 μM): no effects were detected

C=C(C)[C@H]1Cc2c(ccc3c2O[C@@H]2COc4cc(OC)c(OC)cc4[C@@H]2C3=O)O1 [rotenone]
IC50 ([4]; Homo sapiens, MDA-MB-231, read-out: IC50 (toxicity-induced lactate accumulation)): 0.0027 ± 0.00141 µM
IC50 ([4]; Homo sapiens, MDA-MB-231, read-out: IC50 (toxicity-induced lactate accumulation, MitoToxy)): 0.0025 µM
Cytosolic lactate accumulation in astrocytes [7]: induced an acute cytosolic lactate accumulation
Intracellular lactate levels in MitoTox Reporter cells (single-cell) [5]: acute, fast, and robust increase of intracellular lactate levels
IC50 (HepG2 cells [8]): 0.371 µM
IC50 (HepG2 cells [9]): 0.263 µM
IC50 (HepG2 cells [10]): 0.05 µM
IC50 [2, 12]: 20.3 µM
IC50 (glutathione (GSH)): 518 µM
IC50 (cell viability): > 1000 µM
IC50 [6]: 10.5 µM
IC50 (oxygen consumption): 0.02 µM
IC50 [11]: 0.002 µM

CCC(C)(C)C(=O)O[C@H]1C[C@@H](C)C=C2C=C[C@H](C)[C@H](CC[C@@H]3C[C@@H](O)CC(=O)O3)[C@H]21 [simvastatin]
ΔR% variation / lactate accumulation over all concentrations tested [1]: None of these molecules produced an important ΔR% variation
IC50 [2, 12]: 63.2 µM

CC(C)(C)c1ccc(C(O)CCCN2CCC(C(O)(c3ccccc3)c3ccccc3)CC2)cc1 (stereo not shown) [terfenadine]
ΔR% (lactate accumulation) ([1]; 1 μM): without any measurable effects
ΔR% (lactate accumulation) ([1]; 5 μM): without any measurable effects
ΔR% (lactate accumulation) ([1]; 10 μM): 15.64 ± 1.32%
Concentration at which toxicity / mitochondrial effects were detected in the pilot screening [1]: 10 µM
IC50 ([2]; unit inferred, read-out: IC50, MMP measurements): 4.4 µM

antimycin
IC50 [4, 13]: 0.00024 µM
Cytosolic lactate accumulation in astrocytes [7]: induced an acute cytosolic lactate accumulation
Intracellular lactate levels in MitoTox Reporter cells (single-cell) [5]: acute, fast, and robust increase of intracellular lactate levels
IC50 (HepG2 cells [8]): 0.1 µM
IC50 (HepG2 cells [9]): 0.004 µM
IC50 (HepG2 cells [10]): 0.006 µM
IC50 [2, 12]: 2.1 µM
IC50 (glutathione (GSH)): 228 µM
IC50 (cell viability): 291 µM
IC50 [6]: 17.7 µM
IC50 (oxygen consumption): 0.039 µM
IC50 [11]: 0.074 µM

From paper PMC6822764, “MitoToxy assay: A novel cell-based method for the assessment of metabolic toxicity in a multiwell plate format using a lactate FRET nanosensor, Laconic” (PLoS ONE, 2019)
